Measured values as given in PubChem BioAssay AID1259411 (Chemical Carcinogenesis Research Information System (CCRIS), 2018).
Calls of active or inactive are those of the source. No rule for the calls is given here.

Test system: rodent carcinogenicity bioassays, tumor incidence
Test: CCRIS carcinogenicity studies
How it was run: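 Archive of carcinogenicity, mutagenicity, tumor promotion and tumor inhibition results drawn from journals, NCI reports and other sources, expert-reviewed; covers 1985-2011 and is no longer updated.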

Cc1c2ccccc2c(CO)c2ccc3ccccc3c12
carcinogen call (Species: MOUSE, Strain/Sex: B6C3F1/MALE, Route: INTRAPERITONEAL, Dose: 0, 0.0025, 0.01, 0.03 UMOL/G IN 10 µL/G TRIOCTANOIN D 12 OF AGE (STUDY DURATION: 10 MO), Dose: 0, 0.0025, 0.01, 0.03 UMOL/G IN 10 µL/G TRIOCTANOIN D 12 OF AGE (STUDY DURATION: 10 MO), Tumor Site: Type of Lesion: LIVER: HEPATOMA): active; positive | carcinogen call (Species: MOUSE, Strain/Sex: B6C3F1/MALE, Route: INTRAPERITONEAL, Dose: 0, 0.0025 UMOL/G IN 10 µL TRIOCTANOIN ON D 12, 16, 20 AND 24 OF AGE (STUDY DURATION: 12 MO), Tumor Site: Type of Lesion: LIVER: HEPATOMA): active; positive | carcinogen call (Species: MOUSE, Strain/Sex: B6C3F1/MALE, Route: INTRAPERITONEAL, Dose: 0, 0.0075, 0.015, 0.03 UMOL/G IN 10 µL/G TRIOCTANOIN ONCE ON D 12 OF AGE (STUDY DURATION: 10 MO), Dose: 0, 0.0075, 0.015, 0.03 UMOL/G IN 10 µL/G TRIOCTANOIN ONCE ON D 12 OF AGE (STUDY DURATION: 10 MO), Tumor Site: Type of Lesion: LIVER: HEPATOMA): active; positive | carcinogen call (Species: MOUSE, Strain/Sex: B6C3F1/MALE, Route: INTRAPERITONEAL, Dose: 0, 0.01, 0.03, 0.06, UMOL/G IN 5 µL/G DMSO ONCE ON D 12 AGE (STUDY DURATION: 10 MO), Dose: 0, 0.01, 0.03, 0.06, UMOL/G IN 5 µL/G DMSO ONCE ON D 12 AGE (STUDY DURATION: 10 MO), Tumor Site: Type of Lesion: LIVER: HEPATOMA): active; positive | carcinogen call (Species: MOUSE, Strain/Sex: B6C3F1/MALE, Route: INTRAPERITONEAL, Dose: 0, 0.03, 0.08, 0.25 UMOL/G IN 10 µL/G TRIOCTANOIN ONCE AT 12 D OF AGE (STUDY DURATION: 8.5 MO), Dose: 0, 0.03, 0.08, 0.25 UMOL/G IN 10 µL/G TRIOCTANOIN ONCE AT 12 D OF AGE (STUDY DURATION: 8.5 MO), Tumor Site: Type of Lesion: LIVER: HEPATOMA): active; positive | carcinogen call (Species: MOUSE, Strain/Sex: STRAIN-A/FEMALE, Route: INTRAPERITONEAL, Dose: 0, 0.01, 0.03, 0.06 UMOL/G IN 5 µL DMSO/G ONCE AT 4-6 WK OF AGE (STUDY DURATION: 6 MO), Dose: 0, 0.01, 0.03, 0.06 UMOL/G IN 5 µL DMSO/G ONCE AT 4-6 WK OF AGE (STUDY DURATION: 6 MO), Tumor Site: Type of Lesion: LUNG: ADENOMA): active; positive | carcinogen call (Species: RAT, Strain/Sex: SPRAGUE-DAWLEY/FEMALE, Route: SUBCUTANEOUS, Dose: 0, 0.2 UMOL 3/WK FOR 20 DOSES (STUDY DURATION: 52 WK), Tumor Site: Type of Lesion: INJECTION SITE: SARCOMA): active; positive | carcinogen call (Species: RAT, Strain/Sex: SPRAGUE-DAWLEY/FEMALE, Route: SUBCUTANEOUS, Dose: 0, 2 UMOL IN 0.25 ML TRIOCTANOIN INTO LEFT HIND LEG AT ABOUT 40 D OF AGE FOLLOWED BY A SECOND DOSE 6 D LATER (STUDY DURA): inactive; negative | carcinogen call (Species: RAT, Strain/Sex: SPRAGUE-DAWLEY/FEMALE, Route: SUBCUTANEOUS, Dose: 0, 2 UMOL IN 0.25 ML TRIOCTANOIN ONCE INTO LEFT HIND LEG AT ABOUT 40 D OF AGE (STUDY DURATION: 16 MO)): inactive; negative

O=S(=O)(O)c1ccc(N=Nc2c(O)ccc3ccccc23)cc1
carcinogen call (Species: MOUSE, Strain/Sex: SWISS-WEBSTER/FEMALE, Route: DERMAL, Dose: 0, 1% IN 0.1 ML DISTILLED WATER 1/WK FOR 18 MO (STUDY DURATION: 18 MO)): inactive; negative | carcinogen call (Species: MOUSE, Strain/Sex: SWISS-WEBSTER/MALE, Route: DERMAL, Dose: 0, 1% IN 0.1 ML DISTILLED WATER 1/WK FOR 18 MO (STUDY DURATION: 18 MO)): inactive; negative

CNC(=O)ON=C(SC)C(=O)N(C)C
carcinogen call (Species: MOUSE, Strain/Sex: CD-1/FEMALE, Route: ORAL, Dose: 0, 25, 50, 75 PPM IN DIET FOR 2 YR (STUDY DURATION: 2 YR), Dose: 0, 25, 50, 75 PPM IN DIET FOR 2 YR (STUDY DURATION: 2 YR)): inactive; negative | carcinogen call (Species: MOUSE, Strain/Sex: CD-1/MALE, Route: ORAL, Dose: 0, 25, 50, 75 PPM IN DIET FOR 2 YR (STUDY DURATION: 2 YR), Dose: 0, 25, 50, 75 PPM IN DIET FOR 2 YR (STUDY DURATION: 2 YR)): inactive; negative | carcinogen call (Species: RAT, Strain/Sex: CRL:CD/FEMALE, Route: ORAL, Dose: 0, 50, 100, 150 PPM IN DIET FOR 2 YR (STUDY DURATION: 2 YR), Dose: 0, 50, 100, 150 PPM IN DIET FOR 2 YR (STUDY DURATION: 2 YR)): inactive; negative | carcinogen call (Species: RAT, Strain/Sex: CRL:CD/MALE, Route: ORAL, Dose: 0, 50, 100, 150 PPM IN DIET FOR 2 YR (STUDY DURATION: 2 YR), Dose: 0, 50, 100, 150 PPM IN DIET FOR 2 YR (STUDY DURATION: 2 YR)): inactive; negative

O=C1OC2(c3ccc(O)cc3Oc3cc(O)ccc32)c2ccccc21
carcinogen call (Species: MOUSE, Strain/Sex: SWISS-WEBSTER/FEMALE, Route: DERMAL, Dose: 0, 1% IN 0.1 ML 0.1% SODIUM LAURYL SULFATE 1/WK FOR 18 MO (STUDY DURATION: 18 MO)): inactive; negative | carcinogen call (Species: MOUSE, Strain/Sex: SWISS-WEBSTER/MALE, Route: DERMAL, Dose: 0, 1% IN 0.1 ML 0.1% SODIUM LAURYL SULFATE 1/WK FOR 18 MO (STUDY DURATION: 18 MO)): inactive; negative

CCSC(C)CC1CC(=O)C(/C(CC)=N/OC/C=C/Cl)=C(O)C1 (centres undefined)
carcinogen call (Species: Mouse, Strain/Sex: ???/Female (50/group), Route: Oral, Dose: 0, 20, 200, 1,000, 2,000 ppm increased to 3,000 ppm after 15th wk in diet for 78 wk, Dose: 0, 20, 200, 1,000, 2,000 ppm increased to 3,000 ppm after 15th wk in diet for 78 wk): inactive; negative (study details not given in source; purity 83.3%) | carcinogen call (Species: Mouse, Strain/Sex: ???/Male (50/group), Route: Oral, Dose: 0, 20, 200, 1,000, 2,000 ppm increased to 3,000 ppm after 15th wk in diet for 78 wk, Dose: 0, 20, 200, 1,000, 2,000 ppm increased to 3,000 ppm after 15th wk in diet for 78 wk): inactive; negative (study details not given in source; purity 83.3%)

[Ni]=[Se]
carcinogen call (Species: RAT, Strain/Sex: F344/MALE, Route: INTRAMUSCULAR, Tumor Site: Type of Lesion: INJECTION SITE: SARCOMA): active; positive

CC(Cl)CCCC(Cl)CCCC(Cl)CCCC(Cl)CCCC(Cl)CCCC(Cl)CCCl (centres undefined)
carcinogen call (Species: MOUSE, Strain/Sex: B6C3F1/FEMALE, Route: GAVAGE, Dose: 0, 2500, 5000 MG/KG IN CORN OIL 5 D/WK FOR 103 WK (STUDY DURATION: 103 WK), Dose: 0, 2500, 5000 MG/KG IN CORN OIL 5 D/WK FOR 103 WK (STUDY DURATION: 103 WK), Tumor Site: Type of Lesion: LIVER: HEPATOCELLULAR ADENOMA, HEPATOCELLULAR CARCINOMA): equivocal | carcinogen call (Species: MOUSE, Strain/Sex: B6C3F1/MALE, Route: GAVAGE, Dose: 0, 2500, 5000 MG/KG IN CORN OIL 5 D/WK FOR 103 WK (STUDY DURATION: 103 WK), Dose: 0, 2500, 5000 MG/KG IN CORN OIL 5 D/WK FOR 103 WK (STUDY DURATION: 103 WK), Tumor Site: Type of Lesion: HEMATOPOIETIC SYSTEM: MALIGNANT LYMPHOMA): active; positive | carcinogen call (Species: RAT, Strain/Sex: F344/FEMALE, Route: GAVAGE, Dose: 0, 100, 300, 900 MG/KG IN CORN OIL 5 D/WK FOR 103 WK (STUDY DURATION: 103 WK), Dose: 0, 100, 300, 900 MG/KG IN CORN OIL 5 D/WK FOR 103 WK (STUDY DURATION: 103 WK), Tumor Site: Type of Lesion: ADRENAL GLAND: MEDULLARY PHEOCHROMOCYTOMA): equivocal | carcinogen call (Species: RAT, Strain/Sex: F344/MALE, Route: GAVAGE, Dose: 0, 1875, 3750 MG/KG IN CORN OIL 5 D/WK FOR 103 WK (STUDY DURATION: 103 WK), Dose: 0, 1875, 3750 MG/KG IN CORN OIL 5 D/WK FOR 103 WK (STUDY DURATION: 103 WK)): inactive; negative

Nc1cc([N+](=O)[O-])ccc1O
carcinogen call (Species: MOUSE, Strain/Sex: B6C3F1/FEMALE, Route: GAVAGE, Dose: 0, 125, 250 MG/KG IN CORN OIL 5D/WK FOR 103 WK (STUDY DURATION: 105 WK), Dose: 0, 125, 250 MG/KG IN CORN OIL 5D/WK FOR 103 WK (STUDY DURATION: 105 WK)): inactive; negative | carcinogen call (Species: MOUSE, Strain/Sex: B6C3F1/MALE, Route: GAVAGE, Dose: 0, 125, 250 MG/KG IN CORN OIL 5D/WK FOR 103 WK (STUDY DURATION: 105 WK), Dose: 0, 125, 250 MG/KG IN CORN OIL 5D/WK FOR 103 WK (STUDY DURATION: 105 WK)): inactive; negative | carcinogen call (Species: RAT, Strain/Sex: F344/FEMALE, Route: GAVAGE, Dose: 0, 125, 250 MG/KG IN CORN OIL 5D/WK FOR 103 WK (STUDY DURATION: 105 WK), Dose: 0, 125, 250 MG/KG IN CORN OIL 5D/WK FOR 103 WK (STUDY DURATION: 105 WK)): inactive; negative | carcinogen call (Species: RAT, Strain/Sex: F344/MALE, Route: GAVAGE, Dose: 0, 125, 250 MG/KG IN CORN OIL 5D/WK FOR 103 WK (STUDY DURATION: 105 WK), Dose: 0, 125, 250 MG/KG IN CORN OIL 5D/WK FOR 103 WK (STUDY DURATION: 105 WK), Tumor Site: Type of Lesion: PREPUTIAL GLAND: ADENOMA OR CARCINOMA): active; positive

NNc1ccccc1
carcinogen call (Species: MOUSE, Route: ORAL, Tumor Site: Type of Lesion: BLOOD VESSELS, LUNG): active; positive
